Laboratory results from PMC9962512, “Synthesis and Anti-Angiogenic Activity of Novel c(RGDyK) Peptide-Based JH-VII-139-1 Conjugates” (Pharmaceutics, 2023).
Where two headings read alike, the source gives them in different places.

Key:
[1] = target: T1, human SRPK1 (Homo sapiens, UniProt Q96SB4); assay: In vitro kinase assay (GST-SRPK1, GST-LBRNt(62-92) substrate, radioactive); type: biochemical; settings: 25 μM ATP; mean ± SD of three experiments; read-out: IC50 (nΜ) for SRPK1
T1 construct: made in house; host or cells: bacteria (pGEX-2T vector)
Method: The pGEX-2T bacterial expression vector (Amersham Biosciences GmbH, Freiburg, Germany) was used to construct plasmids that encode human SRPK1 and a fragment of the N-terminal domain of turkey LBR comprising amino acids 62–92 (LBRNt(62–92)). The GST-fusion proteins were produced in bacteria and purified using glutathione-Sepharose (Amersham Biosciences) according to the manufacturer’s instructions. Kinase assays were carried out in a total volume of 25 μL containing 0.5 μg GST-SRPK1, 1.5 μg GST-LBRNt(62–92) as substrate, 12 mM Hepes pH 7.5, 10 mM MgCl2, 25 μM ATP, and increasing concentrations of the inhibitors as indicated. In all assays, the final concentration of dimethyl sulfoxide (DMSO) was adjusted to 4%. Phosphorylated GST-LBRNt(62–92) was detected by autoradiography using Super RX (Fuji medical X-ray film,(Fujifilm Holdings Corporation, Tokyo, Japan)). Incorporated radioactivity was quantified by excising the radioactive bands from the SDS-PAGE gel and scintillation counting.

[2] = system: zebrafish Tg(kdrl:gfp) embryos; assay: Zebrafish angiogenesis assay, intersegmental vessels (ISVs); type: in vivo; settings: 10 μM, added 24 hpf, imaged 72 hpf
Method: The Tg(kdrl:gfp)^s843 [38] was used to measure angiogenesis. Zebrafish breeding was carried out according to the European Directive 2010/63 and the Recommended Guidelines for Zebrafish Husbandry Conditions.
Zebrafish Tg(kdrl:gfp)^s843 embryos were raised in E3 medium up to 24 hpf; then dechorinated and finally transferred to a 12-well plate (10 embryos per well). Each compound was dissolved in DMSO and then added in the wells at the following final concentrations: 10 μM JH-VII-139-1 and c(RGDyK), and 1.3 μM geo75, geo77, geo85, geo107. Treated embryos and control embryos (at the corresponding DMSO concentration) were kept at 28 °C and imaged at 72 hpf.
After anesthetizing embryos with 0.4% tricaine methanesulfonate (MS222), a fluorescent image was acquired using a Hamamatsu ORCA-Flash4.0LT digital camera. We used the total length of 8 intersegmental vessels (ISVs) per embryo and the width from each of the above ISVs was measured at three different points, i.e., the top, the middle, and the bottom point of each ISV, and then the average width was estimated. We measured the 8 ISVs that flank the end of the yolk extension. Length and widths were measured using the open-source software ImageJ 1.53a (http://imagej.nih.gov/ij (accessed on 30 May 2022)). A total of 30 embryos (4–7 per group) from independent experiments were measured. […]

[3] = system: K562 cells; assay: cells; type: cell-based; settings: for TGI: total growth inhibition
Method: (§1) HeLa, MCF7, MDA-MB-231 and K562 cancer cell lines were provided by ATCC (American Type Culture Collection). Cells were incubated at 37 °C with 5% CO2. HeLa, MCF7 and MDA-MB-231 cells were maintained in DMEM, while K562 cells were maintained in RPMI medium, both supplemented with 10% (v/v) fetal bovine serum (FBS) and antibiotics/antimycotics.
(§2) HeLa, MCF7, MDA-MB-231 and K562 cells were seeded in 96-well plates (3 × 10^3 cells per well) and grown in medium supplemented with 10% FBS as monolayers at 37 °C in a 5% CO2 incubator. One day after seeding, cells were exposed to increasing concentrations of the inhibitors for 48 h. The viability of the cells was estimated by an (3-(4,5-imethylthiazol-2-yl)-2,5-diphenyltetrazolium bromide (MTT) metabolic assay as described previously, and the percentage growth inhibition (GI50, TGI, IC50) was calculated according to National Cancer Institute recommendations as referred to Leonidis et al.. Values shown represent the means ± SE of three independent experiments.

[4] = system: HeLa cells; assay: cells; type: cell-based; settings: 48 h; for TGI: total growth inhibition
Method: as §1, §2

[5] = system: MCF7 cells; assay: cells; type: cell-based; settings: for TGI: total growth inhibition
Method: as §1, §2

[6] = system: MDA-MB-231 cells; assay: cells; type: cell-based; settings: for TGI: total growth inhibition
Method: as §1, §2

[7] = Stability in Dulbecco's Modified Eagle Medium (+10% FBS); type: in vitro ADME; settings: for half-life at 396 µg/mL: DMEM + 10% FBS, read-out: half-life t1/2
Method: Conjugates geo75, geo77, geo85 and geo107 (200 μg in 5 μL DMSO) were diluted in 0.5 mL DMEM (+10% fetal bovine serum) mixture and incubated at 37 °C. At predetermined time intervals, 50 μL of the mixture was removed and quenched with 150 μL water/acetonitrile/formic acid solution (100/100/0.1 volume ratio) and the sample was analyzed by LC-MS. Three independent experiments were carried out and the results are presented as the mean ± standard deviation.

[8] = system: SRPK1; parameters: method as in PMID 29478907; settings: SRPK1 ref 27; cited from earlier work
[9] = system: HeLa, MCF-7, MDA-MB-231 and K562 cancer cells; assay: MTT assay, summary over the cell panel; type: cell-based; settings: HeLa, MCF-7, MDA-MB-231 and K562; 48 h; read-out: GI50 (cytostatic effect), range over compounds and cell lines
Method: as §1, §2

[10] = MTT assay, summary over the cell panel; type: cell-based
Method: as §1, §2

[11] = Stability in human plasma; type: in vitro ADME; settings: for half-life at 495 µg/mL: human, read-out: half-life t1/2
Method: First, 250 μg of (JH-VII-139-1)-c(RGDyK)-based conjugates were diluted in 5 μL DMSO and the mixture was added to 0.5 mL of human plasma. The mixtures were incubated at 37 °C. 50 μL of aliquot was removed at predetermined time points and quenched with 150 μL ice-cold acetonitrile (+0.1% formic acid). Then, the mixture was centrifuged at 10,000 rpm for 10 min. Then, 50 μL of supernatant was added to 50 μL of ultrapure water (+0.1% formic acid) and analyzed by LC-MS. Results are presented as the mean ± SD of three independent experiments.

[12] = system: angiogenesis in AMD animal model; parameters: method as in PMID 29478907; settings: AMD animal model ref 27; cited from earlier work
[13] = system: α5β1 integrins; parameters: method as in PMID 28074920; settings: α5β1 ref 25; cited from earlier work
[14] = buffer, pH 7.4
Method: (§3) The mixture was then incubated at 37 °C, samples were collected at predetermined time points (0, 1, 2, 3, 4, 5, 24 and 48 h), and analyzed by LC-MS. Results are presented as the mean ± of SD after repeating the experiment three times.

[15] = physchem; settings: buffer, pH 5.2
Method: as §3

[16] = physchem; settings: buffer, pH 7.4
Method: as §3

[17] = DMEM with 10% fetal bovine serum, 37 °C

T1 sequence (Q96SB4 whole entry): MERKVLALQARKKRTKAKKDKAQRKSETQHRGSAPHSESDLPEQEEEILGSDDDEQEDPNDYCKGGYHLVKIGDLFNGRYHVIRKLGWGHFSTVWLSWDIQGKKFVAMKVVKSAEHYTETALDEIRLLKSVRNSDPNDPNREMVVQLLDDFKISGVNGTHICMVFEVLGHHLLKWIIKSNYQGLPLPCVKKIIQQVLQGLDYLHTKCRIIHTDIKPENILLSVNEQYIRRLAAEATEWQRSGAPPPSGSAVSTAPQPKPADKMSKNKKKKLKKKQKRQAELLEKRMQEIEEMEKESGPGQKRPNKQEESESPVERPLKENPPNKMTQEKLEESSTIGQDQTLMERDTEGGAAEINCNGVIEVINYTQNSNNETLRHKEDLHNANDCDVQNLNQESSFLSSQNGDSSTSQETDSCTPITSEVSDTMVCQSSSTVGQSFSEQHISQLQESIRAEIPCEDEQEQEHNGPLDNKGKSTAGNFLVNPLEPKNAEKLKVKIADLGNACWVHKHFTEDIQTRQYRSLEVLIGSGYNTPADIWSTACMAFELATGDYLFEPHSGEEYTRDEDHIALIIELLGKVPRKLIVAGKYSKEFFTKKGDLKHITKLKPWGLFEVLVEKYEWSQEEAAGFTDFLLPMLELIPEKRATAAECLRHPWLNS

Compound | IC50 [1] | inhibition of total width of ISVs [2] | TGI ([3]; K562, 48 h) | TGI ([4]; HeLa) | TGI ([5]; MCF7, 48 h) | TGI ([6]; MDA-MB-231, 48 h) | GI50 ([3]; 48 h) | IC50 ([3]; 48 h) | GI50 [4] | IC50 [4] | GI50 ([5]; 48 h) | IC50 ([5]; 48 h) | GI50 ([6]; 48 h) | IC50 ([6]; 48 h) | IC50 [10] | half-life at 495 µg/mL ([11]; 37 °C) | half-life t1/2 [14] | half-life [15] | half-life at 396 µg/mL [7, 17] | half-life [16] | other results
CCc1cc2c(cc1-c1cc[nH]n1)C(C)(C)c1[nH]c3cc(C#N)ccc3c1C2=O [JH-VII-139-1, 9-Ethyl-6,6-dimethyl-11-oxo-8-(1H-pyrazol-3-yl)-6,11-dihydro-5H-benzo[b]carbazole-3-carbonitrile] | 0.032 ± 0.0005 µM | non-significant trend | 15 ± 0.5 μΜ | 19 ± 0.2 μΜ | 19 ± 0.3 μΜ | 21 ± 0.4 μΜ | – | – | – | – | – | – | – | – | – | – | – | – | – | – | GI50 ([3]; Homo sapiens, K562, 48 h, 50% growth inhibition, read-out: GI50): 8 ± 0.5 µM; IC50 ([3]; Homo sapiens, K562, 48 h, cytotoxic effect, read-out: IC50): 13 ± 0.3 µM; GI50 ([4]; Homo sapiens, HeLa, 50% growth inhibition, read-out: GI50): 8 ± 0.2 µM; IC50 ([4]; Homo sapiens, HeLa, cytotoxic effect, read-out: IC50): 14 ± 0.8 µM; GI50 ([5]; Homo sapiens, MCF7, 48 h, 50% growth inhibition, read-out: GI50): 9 ± 0.2 µM; IC50 ([5]; Homo sapiens, MCF7, 48 h, cytotoxic effect, read-out: IC50): 8 ± 0.6 µM; GI50 ([6]; Homo sapiens, MDA-MB-231, 48 h, 50% growth inhibition, read-out: GI50): 11 ± 0.3 µM; IC50 ([6]; Homo sapiens, MDA-MB-231, 48 h, cytotoxic effect, read-out: IC50): 18 ± 0.5 µM; half-life at 396 µg/mL ([7]; bovine, DMEM with 10% fetal bovine serum (cell-free), 37 °C): > 48 h; IC50 [8]: 0.0011 µM; GI50 [9]: 4 to 12 µM; IC50 at 48 h ([10]; human, MDA-MB-231 and K562 cancer cells, HeLa, MCF-7, MDA-MB-231 and K562, 48 h, read-out: IC50 (cytotoxic effect), range over compounds and cell lines): 3 to 18 µM; half-life at 495 µg/mL ([11]; plasma, 37 °C): > 48 h; effect on angiogenesis [12]: blocks angiogenesis
N=C(N)NCCC[C@@H]1NC(=O)[C@H](CCCCN)NC(=O)[C@@H](Cc2ccc(O)cc2)NC(=O)[C@H](CC(=O)O)NC(=O)CNC1=O [c(RGDyK)] | – | non-significant trend | […] | […] | […] | […] | […] | […] | 79 ± 2.2 µM | […] | […] | […] | […] | […] | – | – | – | – | – | – | IC50 [13]: 0.236 ± 0.045 µM
CCc1cc2c(cc1-c1ccn(C(=O)OCCOCCOCCOC(=O)NCCCC[C@@H]3NC(=O)[C@@H](Cc4ccc(O)cc4)NC(=O)[C@H](CC(=O)O)NC(=O)CNC(=O)[C@H](CCCNC(=N)N)NC3=O)n1)C(C)(C)c1[nH]c3cc(C#N)ccc3c1C2=O [geo75] | 0.035 ± 0.0011 µM | – | – | – | – | – | – | – | – | – | – | – | – | – | 3 to 18 µM | 0.183 h | 24h 15min h min | > 48 h | – | – | time after which almost completely hydrolyzed ([7]; DMEM, 37 °C): 9 h; time after which almost completely hydrolyzed ([11]; 37 °C): 1 h
CCc1cc2c(cc1-c1ccn(C(=O)CCCC(=O)NCCCC[C@@H]3NC(=O)[C@@H](Cc4ccc(O)cc4)NC(=O)[C@H](CC(=O)O)NC(=O)CNC(=O)[C@H](CCCNC(=N)N)NC3=O)n1)C(C)(C)c1[nH]c3cc(C#N)ccc3c1C2=O [geo77] | 0.03 ± 0.0017 µM | – | – | – | – | – | 12 ± 0.9 µM | 17 ± 0.5 µM | 5 ± 0.2 µM | 9 ± 0.2 µM | 4 ± 0.4 µM | 3 ± 0.4 µM | 8 ± 0.5 µM | 10 ± 0.3 µM | 3 to 18 µM | 0.167 to 0.833 h | 1 h 44 min h min | – | – | – | –
CCc1cc2c(cc1-c1ccn(C(=O)NCCOCCOCCNC(=O)NCCCC[C@@H]3NC(=O)[C@@H](Cc4ccc(O)cc4)NC(=O)[C@H](CC(=O)O)NC(=O)CNC(=O)[C@H](CCCNC(=N)N)NC3=O)n1)C(C)(C)c1[nH]c3cc(C#N)ccc3c1C2=O [geo85] | 0.042 ± 0.0019 µM | – | – | – | – | – | > 100 µM | > 100 µM | > 100 µM | > 100 µM | – | – | > 100 µM | > 100 µM | – | > 48 h | – | > 48 h | > 48 h | > 48 h | hydrolysis ([7]; DMEM, after 24 h): 10%; metabolised at 24 h, 495 µg/mL ([11]; after 24 h, read-out: hydrolysis): 10%
CCc1cc2c(cc1-c1ccn(C(=O)NCCOCCOCCNC(=O)N[C@@H](CCCCN)C(=O)NCCCC[C@@H]3NC(=O)[C@@H](Cc4ccc(O)cc4)NC(=O)[C@H](CC(=O)O)NC(=O)CNC(=O)[C@H](CCCNC(=N)N)NC3=O)n1)C(C)(C)c1[nH]c3cc(C#N)ccc3c1C2=O [geo107] | – | – | – | – | – | – | – | – | – | – | – | – | – | – | – | > 48 h | – | > 48 h | > 48 h | > 48 h | residual concentration (of initial concentration), lowest ([7]; cell media (DMEM), up to 48 h): ≥ 80%; residual concentration (of initial concentration), lowest ([11]; up to 48 h): ≥ 80%
